From US20240285808A1, “MOLECULAR PROBES FOR IN VIVO DETECTION OF ALDEHYDES” (The General Hospital Corporation, priority 2021, published 2024)
Like-named read-outs stand apart in the source and are kept apart here.

Columns and labels:
[1] = Biodistribution of ^nat/52Mn-based probes in naïve mice; assay type: in vivo, mouse; settings: 24 h post injection
Description: Example 32. Radiolabeling of Compounds 15-18 with ^52Mn and Preparation of ^52/natMn Complex
^52MnCl2 (5 mCi) was received from the cyclotron facility at the Alabama at Birmingham and diluted to 500 μL with 0.1 M HCl. Solution of […] (50 μL, 1.0 mg in 1 mL of 1.5 M NaOAc buffer, pH 4.5) was mixed with 50 μL of ^52MnCl2. The reaction mixture was kept at room temperature for 15 min and diluted with 200 μL of sterile PBS. The injected dose of ^52/natMn complex was obtained by mixing solution of ^52Mn labeled Compound 15-18 with stock solution of ^natMn labeled Compound 15-18 (^natMn final concentration: 30 mM).
Bleomycin-injured mice at 14 days after injury were sedated and then injected with Compound 19, Compound 20, Gd-CHyd (Akam, E. A., et al. Improving the reactivity of hydrazine-bearing MRI probes for in vivo imaging of lung fibrogenesis. Chemical Science 11, 224-231 (2020)) formulated to contain an equal concentration of Eu-DOTA as a non-binding control probe. Animals were then euthanized at 30 minutes after injection. The lungs were harvested separately, along with blood, tail and liver. Each sample was analyzed by ICP-MS for gadolinium and europium content, and the lungs were also assessed for hydroxyproline content. Selectivity is reported as the ratio of Gd to Eu. All animals were dosed via tail vein injection at 100 nmol/g body weight from 30 mM solutions of gadolinium probes with 30 mM Eu-DOTA as determined by ICP-MS. For PET probes, Compounds 1-8 were radiolabeled with either ^68Ga or ^64Cu and the dose was delivered as a bolus injection through tail vein. Animals were euthanized 90 min post injection and their organs and tissues were harvested and counted using a gamma counter. For an imaging study with a PET tracer, animals were injected inside PET/MRI scanner and scanned dynamically for 60 min under anesthesia. The animals were euthanized 90 min post injection and their organs and tissues were counted using a gamma counter. The biodistribution of Mn-15, Mn-16, Mn-17, and Mn-18 was determined by injecting a mixture of ^52/nat complex into naïve mice and activity in each tissue were measured 24 hours post injection.

PDAC6 xenograft tumor = assay: MR imaging of PDAC6 tumor xenograft model; assay type: in vivo, mouse; settings: 60 min post injection
Description: Male NU(NCr)-Foxn1nu nude mice at 6-8 weeks of age were provided by Charles River Labs, Wilmington, MA. A total of 1×10^7 patient derived metastatic pancreatic cancer cells (PDAC6) were injected into the subcutaneous space of the right lower back of the mice (n=4 per group). Mice were imaged with Mn-17 (100 μmol/kg) 4 weeks after implanting the tumor for pretreatment imaging, and another group of mice were imaged 3-days post treatment with FOLFIRINOX (Folinate 50 mg/kg, Oxaliplaton 2.5 mg/kg, Irinotecan 25 mg/kg, Fluorouracil 25 mg/kg).
For PDAC6 xenograft tumor imaging, images were acquired with following sequences and parameters: 3D T1 weighted FLASH (TR/TE/FA=14 ms/[…]/30°, 0.4 mm isotropic spatial resolution, field of view (FOV) 35 mm×35 mm, two average, acquisition time=4.3 min) images were acquired prior to and dynamically post injection of contrast agent; 3D RARE (RARE, TR/TE/FA=[…]/57 ms/180°, 0.3 mm isotropic spatial resolution, field of view (FOV) 35 mm×60 mm, one average, acquisition time=8.1 min) image was also acquired.
For tumor imaging analysis, RARE image and first FLASH image post-contrast were used to define volumetric region of interest (ROIs) in the tumor that excluded necrosis region. ΔCNR was calculated by eq 22.

[2] = Kinetics of hydrolysis of butyraldehyde condensation products; assay type: physicochemical
Description: Quantitative Measurements of Kinetics of Hydrolysis:
One mM solutions of Mn-15-Ald, Mn-16-Ald and Mn-17-Ald (where Mn-Ald refers to the reaction product with either Mn-15, Mn-16, or Mn-17) were prepared by the following procedure: 1 mM (1 mL) of Mn-15, Mn-16 or Mn-17 were prepared in PBS (pH 7.4) followed by addition of butyraldehyde (14.4 mg, […]). The mixture was rocked gently under room temperature for 10 min and then freeze-dried for 12 hours. Then, the obtained white solid was redissolved in 1 mL water.
The HPLC trace of each butyraldehyde reaction product was measured by Method 25 (Mn-15-Ald) and Method 26 (Mn-16-Ald, Mn-17-Ald). Then, a 37% stock solution of formaldehyde was added to give a final formaldehyde concentration of 200 mM.
The hydrolysis of the hydrazone/oxime is reversible. An excess of formaldehyde was added to trap the liberated nitrogen base and thereby push the hydrolysis reaction to completion, allowing the hydrolysis reaction to be monitored without interference from the reverse reaction. So, the kinetics for hydrolysis of Mn-15-Ald, Mn-16-Ald and Mn-17-Ald follows the rate law.
where Y is the % hydrolysis, t is time, kobs,H is the first-order rate constant, and Ymax is the % hydrolysis at t=∞. Kinetic traces were obtained in triplicate, and half-lives were calculated with equation 20: […]
The novel Mn-PC2A derivatives (FIG. 1A) were synthesized in 6 steps from the pyclen macrocycle. Hydrazone formation kinetics with butyraldehyde as a model compound were measured by UV spectroscopy at 220 nm, 25° C., pH 7.4, PBS. Hydrazone hydrolysis kinetics were measured by HPLC with UV detection at 220 nm using excess formaldehyde to trap the liberated hydrazine and prevent the reverse reaction. Allysine-modified BSA (BSA-Ald, 17.4 mg/mL, […] aldehyde) as a soluble model protein or BSA (17.3 mg/mL, 16.8 μM aldehyde) and Mn-15 or Mn-17 (50-200 μM) were incubated at 37° C. for 3 hours, and 1/T1 was measured at 1.4 T, 37° C., and plotted vs concentration to obtain relaxivity. The protein bound probe was isolated by ultrafiltration and the relaxivity of the protein-bound fraction measured. All Mn concentrations were measured by ICP-MS. Liver fibrosis was induced in male C57BL/6 mice by oral gavage with CCl4 for 12 weeks, 2-3 times per week, while control mice received vehicle (olive oil). 3D FLASH images (TR/TE/FA=15 ms/2 ms/30°, 0.25 mm^3 spatial resolution) were acquired on a 4.7 T Bruker Biospec prior to and dynamically for 40 min p.i. of 100 μmol/kg Mn-15. Liver to muscle contrast to noise was calculated as CNR=(SILiver−SIMuscle)/SDAir where SI=signal intensity and SD=standard deviation in SI.

[3] = 3-days post treatment (FOLFIRINOX)
[4] = butyraldehyde reaction product, formaldehyde 200 mM as trap

| SMILES | Biodistribution, Blood [1] [% ID/g] | Biodistribution, Bone [1] [% ID/g] | Biodistribution, Brain [1] [% ID/g] | Biodistribution, Heart [1] [% ID/g] | Biodistribution, Intestine [1] [% ID/g] | Biodistribution, Kidney [1] [% ID/g] | Biodistribution, Liver [1] [% ID/g] | Biodistribution, Lung [1] [% ID/g] | Biodistribution, Muscle [1] [% ID/g] | Biodistribution, Skin [1] [% ID/g] | Biodistribution, Spleen [1] [% ID/g] | Biodistribution, Stomach [1] [% ID/g] | ΔCNR of PDAC6 xenograft tumor (PDAC6 xenograft tumor; [3]) | ΔCNR of PDAC6 xenograft tumor (PDAC6 xenograft tumor; Pre-treatment) | hydrolysis rate constant [2] [s⁻¹] | times higher hydrolysis rate constant compared to Mn-17 [2] [fold] | hydrolysis rate constant [2, 4] |
| --- | --- | --- | --- | --- | --- | --- | --- | --- | --- | --- | --- | --- | --- | --- | --- | --- | --- |
| CN(C)C(CCC(=O)NCCCN1CCN(CC(=O)[O-])Cc2cccc(n2)CN(CC(=O)[O-])CC1)C(=O)O.[Mn+2] (centres unmarked) [Mn-18] | 0.0013 | 0.0227 | 0.0145 | 0.0364 | 0.0355 | 0.5290 | 0.1833 | 0.0599 | 0.0132 | 0.0243 | 0.0616 | 0.0477 | 0.4 ± 0.3 | 0.4 ± 0.3 | – | – | – |
| NNC(CCC(=O)NCCCN1CCN(CC(=O)[O-])Cc2cccc(n2)CN(CC(=O)[O-])CC1)C(=O)O.[Mn+2] (centres unmarked) [Mn-15] | 0.0018 | 0.0385 | 0.0156 | 0.0532 | 0.0665 | 0.7021 | 0.2186 | 0.1312 | 0.0154 | 0.0719 | 0.0843 | 0.0759 | – | – | 0.00103 | 2 | 1.03 ± 0.15 ×10^−3 s^−1 |
| NOC(CCC(=O)NCCCN1CCN(CC(=O)[O-])Cc2cccc(n2)CN(CC(=O)[O-])CC1)C(=O)O.[Mn+2] (centres unmarked) [Mn-16] | 0.0051 | 0.1378 | 0.0275 | 0.1579 | 0.1330 | 0.9664 | 0.3950 | 0.4469 | 0.0669 | 0.9457 | 0.1978 | 0.1638 | – | – | 7.9e-07 | – | 0.79 ± 0.03 ×10^−6 s^−1 |
| NNCC(=O)NCCCN1CCN(CC(=O)[O-])Cc2cccc(n2)CN(CC(=O)[O-])CC1.[Mn+2] [Mn-17] | 0.0020 | 0.0414 | 0.0170 | 0.0675 | 0.0556 | 0.5387 | 0.2125 | 0.1954 | 0.0196 | 0.0925 | 0.0965 | 0.0681 | 6.4 ± 1.2 | 4.6 ± 1.0 | 0.00041 | – | 0.41 ± 0.01 ×10^−3 s^−1 |
